Experimental data reported in US8637511B2, “Aminopyrimidines useful as kinase inhibitors” (Vertex Pharmaceuticals Incorporated, priority 2005, dated 2014).
Where two headings read alike, the source gives them in different places.

Experiments:
human Itk kinase = molecular target: T1, human Itk kinase (Homo sapiens, UniProt Q08881); assay: Itk inhibition assay: radioactivity-based assay; assay type: biochemical; conditions: Ki(app)
T1 sequence (Q08881 1-620): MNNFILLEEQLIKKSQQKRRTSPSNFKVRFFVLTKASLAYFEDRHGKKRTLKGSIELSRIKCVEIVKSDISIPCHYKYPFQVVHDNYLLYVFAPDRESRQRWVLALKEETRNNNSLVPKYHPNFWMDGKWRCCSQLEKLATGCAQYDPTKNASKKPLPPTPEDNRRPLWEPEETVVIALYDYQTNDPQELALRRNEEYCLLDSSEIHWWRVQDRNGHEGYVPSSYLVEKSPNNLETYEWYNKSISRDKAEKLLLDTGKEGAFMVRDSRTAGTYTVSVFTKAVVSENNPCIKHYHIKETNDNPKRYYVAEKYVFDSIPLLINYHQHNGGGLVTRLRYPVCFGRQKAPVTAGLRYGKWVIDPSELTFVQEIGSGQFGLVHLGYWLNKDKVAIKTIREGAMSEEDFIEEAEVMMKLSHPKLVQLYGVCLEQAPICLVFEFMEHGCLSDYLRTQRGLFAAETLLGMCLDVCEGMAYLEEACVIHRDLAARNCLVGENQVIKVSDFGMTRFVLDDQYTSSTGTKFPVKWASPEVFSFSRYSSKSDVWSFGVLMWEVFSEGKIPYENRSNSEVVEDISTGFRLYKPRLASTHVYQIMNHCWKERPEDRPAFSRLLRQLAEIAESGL
Description: The compounds of the present invention were evaluated as inhibitors of human Itk kinase using a radioactivity-based assay. These compounds can also be evaluated using a spectrophotometric or alphascreen assay.
Assays were carried out in a mixture of 20 mM MOPS (pH 7.0), 10 mM MgCl2, 0.1% BSA and 1 mM DTT. Final substrate concentrations in the assay were 7.5 μM [γ-^33P]ATP (400 μCi ^33P ATP/μmol ATP, Amersham Pharmacia Biotech/Sigma Chemicals) and 3 μM peptide (SAM68 protein Δ332-443). Assays were carried out at 25° C. in the presence of 50 nM Itk. An assay stock buffer solution was prepared containing all of the reagents listed above, with the exception of ATP and the test compound of interest. 50 μL of the stock solution was placed in a 96 well plate followed by addition of 2 μL of DMSO stock containing serial dilutions of the test compound (typically starting from a final concentration of 50 μM with 2-fold serial dilutions) in duplicate (final DMSO concentration 2%). The plate was pre-incubated for 10 minutes at 25° C. and the reaction initiated by addition of 50 μL [γ-^33P]ATP (final concentration 7.5 μM).
The reaction was stopped after 10 minutes by the addition of 100 μL 0.2M phosphoric acid+0.01% TWEEN 20. A multiscreen phosphocellulose filter 96-well plate (Millipore, Cat no. MAPHNOB50) was pretreated with 100 μL 0.2M phosphoric acid+0.01% TWEEN 20 prior to the addition of 170 μL of the stopped assay mixture. The plate was washed with 4×200 μL 0.2M phosphoric acid+0.01% TWEEN 20. After drying, 30 μL Optiphase ‘SuperMix’ liquid scintillation cocktail (Perkin Elmer) was added to the well prior to scintillation counting (1450 Microbeta Liquid Scintillation Counter, Wallac).
Ki(app) data were calculated from non-linear regression analysis of the initial rate data using the Prism software package (GraphPad Prism version 3.0cx for Macintosh, GraphPad Software, San Diego Calif., USA).

JAK3 = molecular target: T2, JAK3 (Homo sapiens, UniProt P52333); assay: biochemical
T2 sequence (P52333 1-1124): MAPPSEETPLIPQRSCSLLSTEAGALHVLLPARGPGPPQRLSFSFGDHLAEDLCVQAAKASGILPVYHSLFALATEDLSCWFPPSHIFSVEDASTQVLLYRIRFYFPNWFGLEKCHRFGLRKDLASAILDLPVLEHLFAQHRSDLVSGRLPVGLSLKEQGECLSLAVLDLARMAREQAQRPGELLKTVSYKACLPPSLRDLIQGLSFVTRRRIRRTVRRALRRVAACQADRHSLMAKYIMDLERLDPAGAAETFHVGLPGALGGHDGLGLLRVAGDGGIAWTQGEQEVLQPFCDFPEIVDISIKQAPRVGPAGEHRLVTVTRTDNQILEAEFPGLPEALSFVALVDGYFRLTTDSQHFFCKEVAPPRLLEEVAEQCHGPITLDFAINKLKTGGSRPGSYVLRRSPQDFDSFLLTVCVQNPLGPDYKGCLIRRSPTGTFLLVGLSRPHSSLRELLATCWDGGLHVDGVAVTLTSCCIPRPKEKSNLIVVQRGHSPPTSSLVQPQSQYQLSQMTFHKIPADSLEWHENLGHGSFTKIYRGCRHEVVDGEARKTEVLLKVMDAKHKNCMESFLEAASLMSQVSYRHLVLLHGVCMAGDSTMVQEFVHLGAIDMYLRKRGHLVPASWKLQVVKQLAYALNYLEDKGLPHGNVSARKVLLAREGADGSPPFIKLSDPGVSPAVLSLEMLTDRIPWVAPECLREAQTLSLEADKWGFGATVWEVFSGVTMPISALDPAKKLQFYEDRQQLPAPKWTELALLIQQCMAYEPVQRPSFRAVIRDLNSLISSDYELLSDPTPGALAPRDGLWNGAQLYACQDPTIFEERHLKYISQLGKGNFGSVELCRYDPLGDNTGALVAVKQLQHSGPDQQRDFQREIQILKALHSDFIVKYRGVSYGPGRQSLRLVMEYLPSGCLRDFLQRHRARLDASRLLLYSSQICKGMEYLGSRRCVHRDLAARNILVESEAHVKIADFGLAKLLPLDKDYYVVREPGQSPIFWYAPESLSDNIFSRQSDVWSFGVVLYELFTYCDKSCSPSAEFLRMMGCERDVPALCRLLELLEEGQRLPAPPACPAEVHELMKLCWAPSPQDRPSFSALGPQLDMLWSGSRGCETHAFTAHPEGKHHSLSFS

Colo205 cells = assay: Analysis of cell proliferation and viability; assay type: cell-based; conditions: Homo sapiens, read-out: IC50 value
Aurora-1 (Aurora B) = Aurora-1 (Aurora B) (Homo sapiens, UniProt Q96GD4); assay: Aurora-1 (Aurora B) inhibition assay (radiometric); assay type: biochemical; conditions: read-out: Aurora B kinase Ki value
Summary of the method: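 Radiometric ^33P incorporation into peptide substrate, with [γ-^33P]-ATP at 800 μM final, in 25 mM HEPES pH 7.5, 10 mM MgCl2, 0.1% BSA, 10% glycerol. Compound preincubated with enzyme for 10 min at 25° C, reaction run 3 h, then captured on phosphocellulose. Ki from initial rates by non-linear regression after background subtraction.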

Aurora-2 (Aurora A) = molecular target: T3, Aurora-2 (Aurora A) (Homo sapiens, UniProt O14965); assay: Aurora-2 (Aurora A) inhibition assay, coupled enzyme; assay type: biochemical; conditions: read-out: Aurora A kinase Ki value
T3 sequence (O14965 1-403): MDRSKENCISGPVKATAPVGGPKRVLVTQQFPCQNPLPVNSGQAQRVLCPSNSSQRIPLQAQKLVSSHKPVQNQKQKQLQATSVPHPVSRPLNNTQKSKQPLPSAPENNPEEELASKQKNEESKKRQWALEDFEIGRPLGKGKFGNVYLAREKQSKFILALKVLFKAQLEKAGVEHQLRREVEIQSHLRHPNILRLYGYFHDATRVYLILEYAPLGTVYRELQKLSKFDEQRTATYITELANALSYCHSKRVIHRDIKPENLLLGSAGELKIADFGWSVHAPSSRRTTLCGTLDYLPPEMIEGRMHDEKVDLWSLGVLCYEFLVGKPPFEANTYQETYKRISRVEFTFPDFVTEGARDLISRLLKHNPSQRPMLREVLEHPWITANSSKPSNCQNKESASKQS
Summary of the method: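 Coupled pyruvate kinase/lactate dehydrogenase assay with NADH in pH 7.5 Hepes containing MgCl2, DTT and NaCl, using 40 nM Aurora-2 at 30 °C. After a 10 min preincubation, enzyme addition started the reaction, and initial rates were taken over 10 min. IC50 and Ki came from non-linear regression.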

[1] = COLO 205, Colo205 cells, incubated for 96 hours

Chain of Aurora-1 (Aurora B) (Q96GD4 whole entry): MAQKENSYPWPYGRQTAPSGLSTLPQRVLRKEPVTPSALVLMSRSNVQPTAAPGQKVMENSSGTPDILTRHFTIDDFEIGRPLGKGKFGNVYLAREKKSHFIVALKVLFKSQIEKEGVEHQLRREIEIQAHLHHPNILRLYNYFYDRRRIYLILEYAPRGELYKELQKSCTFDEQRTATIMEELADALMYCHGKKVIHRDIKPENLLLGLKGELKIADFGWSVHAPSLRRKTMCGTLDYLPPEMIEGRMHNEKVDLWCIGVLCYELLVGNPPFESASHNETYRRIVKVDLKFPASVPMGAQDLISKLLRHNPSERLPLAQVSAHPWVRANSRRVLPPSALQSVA

| SMILES | Ki (human Itk kinase) | IC50 (Colo205 cells; [1]) | IC50 (Colo205 cells; COLO 205, 96 h) | other results |
| --- | --- | --- | --- | --- |
| O=C(Nc1ccc(Sc2nc(Nc3cc(C4CC4)[nH]n3)cc(N3CCC3)n2)cc1)c1ccccc1Cl [Compound 65] | ≤ 0.1 µM | 0.05 to 1 µM |  | Ki (JAK3; read-out: JAK3 Ki value): ≤ 0.01 µM |
| Cc1cc(Nc2cc(N3CCC3)nc(Sc3ccc(NC(=O)c4c(F)cccc4F)cc3)n2)n[nH]1 [Compound 7] | ≤ 0.1 µM | ≤ 0.05 µM |  |  |
| Cc1cccc(C(=O)Nc2ccc(Sc3nc(Nc4cc(C)[nH]n4)cc(N4CCC4)n3)cc2)c1 [Compound 29] | 0.1 to 1 µM |  | 0.05 to 1 µM |  |
| Cc1cc(Nc2cc(N3CCC3)nc(Sc3ccc(NC(=O)c4cc(Cl)ccc4Cl)cc3)n2)n[nH]1 [Compound 163] | 0.1 to 1 µM | 0.05 to 1 µM |  |  |
| Cc1cc(Nc2cc(N3CCC3)nc(Sc3ccc(NC(=O)c4ccccc4F)cc3)n2)n[nH]1 [Compound 9] | 0.1 to 1 µM | 0.05 to 1 µM |  | Ki (Aurora-1 (Aurora B)): ≤ 0.01 µM |
| Cc1cc(Nc2cc(N3CCC3)nc(Sc3ccc(NC(=O)c4c(Cl)cccc4Cl)cc3)n2)n[nH]1 [Compound 46] | ≤ 0.1 µM |  | 0.05 to 1 µM |  |
| Cc1cc(Nc2cc(N3CCC3)nc(Sc3ccc(NC(=O)c4cccc(Cl)c4)cc3)n2)n[nH]1 [Compound 53] | 0.1 to 1 µM | 0.05 to 1 µM |  |  |
| CCc1cccc(C(=O)Nc2ccc(Sc3nc(Nc4cc(C)[nH]n4)cc(N4CCC4)n3)cc2)c1Cl [Compound 164] | 0.1 to 1 µM | ≤ 0.05 µM |  | Ki (JAK3): ≤ 0.01 µM |
| Cc1cc(Nc2cc(N3CCC3)nc(Sc3ccc(NC(=O)c4cccc(C)c4Cl)cc3)n2)n[nH]1 [Compound 161] | 0.1 to 1 µM | 0.05 to 1 µM |  | Ki (JAK3; read-out: JAK3 Ki value): ≤ 0.01 µM |
| Cc1cc(Nc2cc(N3CCC3)nc(Sc3ccc(NC(=O)c4ccccc4C)cc3)n2)n[nH]1 [Compound 31] | 0.1 to 1 µM |  | 0.05 to 1 µM |  |
| Cc1cc(Nc2cc(N3CCC3)nc(Sc3ccc(NC(=O)c4cccc(F)c4F)cc3)n2)n[nH]1 [Compound 33] | 0.1 to 1 µM |  | 0.05 to 1 µM | Ki (Aurora-2 (Aurora A)): 0.001 to 0.005 µM |
| Cc1cc(Nc2cc(N3CCC3)nc(Sc3ccc(NC(=O)c4ccccc4OC(F)(F)F)cc3)n2)n[nH]1 [Compound 34] | 0.1 to 1 µM |  | 0.05 to 1 µM |  |
| O=C(Nc1ccc(Sc2nc(Nc3cc(CO)[nH]n3)cc(N3CCC3)n2)cc1)c1ccccc1Cl [Compound 75] | 1 to 2 µM |  |  | Ki (Aurora-2 (Aurora A)): 0.005 to 0.2 µM; Ki (Aurora-1 (Aurora B)): 0.05 to 2 µM |
| Cc1cc(Nc2cc(N3CCC3)nc(Sc3ccc(NC(=O)c4ccccc4C(F)(F)F)cc3)n2)[nH]n1 [Compound 56] | 0.1 to 1 µM | ≤ 0.05 µM |  | IC50 (Colo205 cells; COLO 205, Colo205 cells, incubated for 72 hours): 0.03 to 0.2 µM |
| COc1ccccc1C(=O)Nc1ccc(Sc2nc(Nc3cc(C)[nH]n3)cc(N3CCC3)n2)cc1 [Compound 32] | 0.1 to 1 µM |  | 0.05 to 1 µM |  |
